Several values for one entry are separate records, joined by “and”; a condition that tells them apart may be missing. Equal entries are not always repeated. Inconclusive results and toxic doses are left out.
Tested on: CD2F1 mice, L1210 leukemia ip, survival T/C
Experiment: NCI In Vivo Anticancer Drug Screen. Data for tumor model L1210 Leukemia (intraperitoneal) in CD2F1 (CDF1) mice
Settings: higher = longer survival
How it was run: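 Tumor-bearing mice (transplanted tumor) were split into treated and vehicle control groups, and the measured endpoint of each treated group was divided by that of its vehicle controls.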

[1] = endpoint: mean survival time, dose: 100.0 mg/kg/injection, schedule: Q04DX003 (ip), vehicle: saline with Tween-80
[2] = endpoint: mean survival time, dose: 200.0 mg/kg/injection, schedule: Q04DX003 (ip), vehicle: saline with Tween-80
[3] = endpoint: mean survival time, dose: 400.0 mg/kg/injection, schedule: Q04DX003 (ip), vehicle: saline with Tween-80
[4] = endpoint: mean survival time, dose: 100.0 mg/kg/injection, schedule: Q04DX002 (ip), vehicle: saline with Tween-80
[5] = endpoint: mean survival time, dose: 200.0 mg/kg/injection, schedule: Q04DX002 (ip), vehicle: saline with Tween-80
[6] = endpoint: mean survival time, dose: 400.0 mg/kg/injection, schedule: Q04DX002 (ip), vehicle: saline with Tween-80
[7] = endpoint: mean survival time, dose: 25.0 mg/kg/injection, schedule: Q01DX009 (ip), vehicle: saline with Tween-80
[8] = endpoint: mean survival time, dose: 25.0 mg/kg/injection, schedule: Q04DX003 (ip), vehicle: saline with Tween-80
[9] = endpoint: mean survival time, dose: 50.0 mg/kg/injection, schedule: Q01DX009 (ip), vehicle: saline with Tween-80
[10] = endpoint: mean survival time, dose: 50.0 mg/kg/injection, schedule: Q04DX003 (ip), vehicle: saline with Tween-80
[11] = endpoint: mean survival time, dose: 100.0 mg/kg/injection, schedule: Q01DX009 (ip), vehicle: saline with Tween-80
[12] = endpoint: mean survival time, dose: 100.0 mg/kg/injection, schedule: Q01DX001 (ip), vehicle: saline
[13] = endpoint: mean survival time, dose: 200.0 mg/kg/injection, schedule: Q01DX001 (ip), vehicle: saline
[14] = endpoint: mean survival time, dose: 400.0 mg/kg/injection, schedule: Q01DX001 (ip), vehicle: saline
[15] = endpoint: mean survival time, dose: 50.0 mg/kg/injection, schedule: Q01DX001 (ip), vehicle: saline

SMILES: CCOC(=O)CNC(=O)CCCCSc1ncnc2nc[nH]c12
- T/C (endpoint: mean survival time, dose: 20.0 mg/kg/injection, schedule: Q01DX001 (ip), vehicle: saline with Tween-80): 95 % of control
- T/C (endpoint: mean survival time, dose: 20.0 mg/kg/injection, schedule: Q01DX009 (ip), vehicle: saline with Tween-80): 98 % of control
- T/C (endpoint: mean survival time, dose: 20.0 mg/kg/injection, schedule: Q04DX003 (ip), vehicle: saline with Tween-80): 102 % of control
- T/C (endpoint: mean survival time, dose: 40.0 mg/kg/injection, schedule: Q01DX001 (ip), vehicle: saline with Tween-80): 97 % of control
- T/C (endpoint: mean survival time, dose: 40.0 mg/kg/injection, schedule: Q01DX009 (ip), vehicle: saline with Tween-80): 94 % of control
- T/C (endpoint: mean survival time, dose: 40.0 mg/kg/injection, schedule: Q04DX003 (ip), vehicle: saline with Tween-80): 95 % of control
- T/C (endpoint: mean survival time, dose: 80.0 mg/kg/injection, schedule: Q01DX009 (ip), vehicle: saline with Tween-80): 96 % of control
- T/C (endpoint: mean survival time, dose: 80.0 mg/kg/injection, schedule: Q04DX003 (ip), vehicle: saline with Tween-80): 95 % of control
- T/C (endpoint: mean survival time, dose: 160.0 mg/kg/injection, schedule: Q01DX001 (ip), vehicle: saline with Tween-80): 90 % of control
- T/C (endpoint: mean survival time, dose: 160.0 mg/kg/injection, schedule: Q01DX009 (ip), vehicle: saline with Tween-80): 93 % of control
- T/C (endpoint: mean survival time, dose: 160.0 mg/kg/injection, schedule: Q04DX003 (ip), vehicle: saline with Tween-80): 95 % of control
- T/C (endpoint: mean survival time, dose: 320.0 mg/kg/injection, schedule: Q01DX001 (ip), vehicle: saline with Tween-80): 95 % of control
- T/C (endpoint: mean survival time, dose: 320.0 mg/kg/injection, schedule: Q01DX009 (ip), vehicle: saline with Tween-80): 96 % of control
- T/C (endpoint: mean survival time, dose: 320.0 mg/kg/injection, schedule: Q04DX003 (ip), vehicle: saline with Tween-80): 93 % of control
- T/C (endpoint: mean survival time, dose: 640.0 mg/kg/injection, schedule: Q01DX001 (ip), vehicle: saline with Tween-80): 97 % of control
- T/C (endpoint: mean survival time, dose: 640.0 mg/kg/injection, schedule: Q04DX003 (ip), vehicle: saline with Tween-80): 100 % of control

SMILES: CC(=O)OC1COC(n2nnc3c(-c4ccccc4)c(C)nn32)C(OC(C)=O)C1OC(C)=O (centres undefined)
- T/C (endpoint: median survival time, dose: 12.5 mg/kg/injection, schedule: Q01DX005 (ip), vehicle: Klucel (hydroxypropylcellulose) (HPC)): 112 % of control
- T/C (endpoint: median survival time, dose: 25.0 mg/kg/injection, schedule: Q01DX005 (ip), vehicle: Klucel (hydroxypropylcellulose) (HPC)): 104 % of control
- T/C (endpoint: median survival time, dose: 50.0 mg/kg/injection, schedule: Q01DX005 (ip), vehicle: Klucel (hydroxypropylcellulose) (HPC)): 97 % of control
- T/C (endpoint: median survival time, dose: 100.0 mg/kg/injection, schedule: Q01DX005 (ip), vehicle: Klucel (hydroxypropylcellulose) (HPC)): 100 % of control
- T/C (endpoint: median survival time, dose: 200.0 mg/kg/injection, schedule: Q01DX005 (ip), vehicle: Klucel (hydroxypropylcellulose) (HPC)): 95 % of control

SMILES: CN1CCC(C(O)c2ccccc2)CC1 (centres undefined)
- T/C [1]: 102 % of control
- T/C [2]: 100 % of control
- T/C [3]: 88 % of control

SMILES: CN(C)C(=S)Oc1ccc2ccc3ccccc3c2c1
- T/C [4]: 96 % of control
- T/C [5]: 89 % of control
- T/C [6]: 104 % of control

SMILES: C=C(Cl)CNC(N)=S
- T/C [1]: 99 % of control
- T/C [2]: 98 % of control

SMILES: O=[N+]([O-])c1ccc(OC(=S)c2ccccc2)cc1
- T/C [4]: 96 % of control
- T/C [5]: 96 % of control

SMILES: CCCCCCCCOC(=O)c1cc([N+](=O)[O-])c(Cl)c([N+](=O)[O-])c1
- T/C [7]: 106 % of control
- T/C [8]: 103 % of control
- T/C [9]: 101 % of control
- T/C [10]: 109 % of control
- T/C [11]: 87 % of control
- T/C [1]: 91 % of control and 98 % of control

SMILES: [Co+2].[NH-]c1ccccc1C(=O)O.[NH-]c1ccccc1C(=O)O
- T/C [1]: 89 % of control
- T/C [2]: 91 % of control
- T/C [3]: 91 % of control

SMILES: O=C(Nc1cccc([N+](=O)[O-])c1)N(c1ccccc1)c1ccccc1
- T/C [12]: 88 % of control
- T/C [13]: 94 % of control
- T/C [14]: 93 % of control

SMILES: Nc1nnc(C(F)(F)F)s1
- T/C (endpoint: mean survival time, dose: 100.0 mg/kg/injection, schedule: Q04DX002 (ip), vehicle: Klucel (hydroxypropylcellulose) (HPC)): 101 % of control
- T/C (endpoint: mean survival time, dose: 200.0 mg/kg/injection, schedule: Q04DX002 (ip), vehicle: Klucel (hydroxypropylcellulose) (HPC)): 101 % of control
- T/C (endpoint: mean survival time, dose: 400.0 mg/kg/injection, schedule: Q04DX002 (ip), vehicle: Klucel (hydroxypropylcellulose) (HPC)): 108 % of control

SMILES: Nc1nc2ccc(NCc3ccc(C(=O)NC(CCC(=O)O)C(=O)O)cc3)cc2c(=O)[nH]1 (centres undefined)
- T/C (endpoint: median survival time, dose: 6.25 mg/kg/injection, schedule: Q01DX009 (ip), vehicle: saline with Tween-80): 100 % of control and 101 % of control
- T/C (endpoint: median survival time, dose: 12.5 mg/kg/injection, schedule: Q01DX009 (ip), vehicle: saline with Tween-80): 100 % of control and 108 % of control (2×)
- T/C (endpoint: median survival time, dose: 25.0 mg/kg/injection, schedule: Q01DX009 (ip), vehicle: saline with Tween-80): 115 % of control and 118 % of control and 119 % of control
- T/C (endpoint: median survival time, dose: 50.0 mg/kg/injection, schedule: Q01DX009 (ip), vehicle: saline with Tween-80): 155 % of control

SMILES: CCCCNc1ncnc2snnc12
- T/C (endpoint: mean survival time, dose: 100.0 mg/kg/injection, schedule: Q01DX001 (ip), vehicle: Klucel (hydroxypropylcellulose) (HPC)): 101 % of control
- T/C (endpoint: mean survival time, dose: 200.0 mg/kg/injection, schedule: Q01DX001 (ip), vehicle: Klucel (hydroxypropylcellulose) (HPC)): 98 % of control
- T/C (endpoint: mean survival time, dose: 400.0 mg/kg/injection, schedule: Q01DX001 (ip), vehicle: Klucel (hydroxypropylcellulose) (HPC)): 104 % of control

SMILES: N=C(OC1CCCCC1)C(Cl)(Cl)Cl
- T/C [9]: 92 % of control
- T/C [11]: 88 % of control

SMILES: O=C(Nc1ccccc1)OCCc1c2ccccc2nc2ccccc12
- T/C [4]: 94 % of control
- T/C [5]: 94 % of control
- T/C [6]: 90 % of control and 97 % of control

SMILES: O=c1ccn(C2OC(CCl)C(O)C2O)c(=O)[nH]1 (centres undefined)
- T/C [15]: 105 % of control
- T/C [12]: 102 % of control
- T/C [13]: 94 % of control

SMILES: CN1C2C=C(c3ccccc3)C(Br)C1CC2 (centres undefined)
- T/C (endpoint: mean survival time, dose: 20.0 mg/kg/injection, schedule: Q01DX009 (ip), vehicle: saline): 103 % of control
- T/C (endpoint: mean survival time, dose: 40.0 mg/kg/injection, schedule: Q01DX009 (ip), vehicle: saline): 112 % of control
- T/C (endpoint: mean survival time, dose: 80.0 mg/kg/injection, schedule: Q01DX009 (ip), vehicle: saline): 110 % of control

SMILES: COc1ccc2c(c1)CCC1C2=CC(=O)/C1=C\[O-].COc1ccc2c(c1)CCC1C2=CC(=O)/C1=C\[O-].[Cu+2] (centres undefined)
- T/C (endpoint: mean survival time, dose: 12.5 mg/kg/injection, schedule: Q01DX009 (ip), vehicle: saline with Tween-80): 92 % of control
- T/C (endpoint: mean survival time, dose: 12.5 mg/kg/injection, schedule: Q04DX003 (ip), vehicle: saline with Tween-80): 93 % of control
- T/C [7]: 95 % of control
- T/C [8]: 93 % of control
- T/C [9]: 94 % of control
- T/C [10]: 96 % of control

SMILES: O=C(Nc1ccc2ccccc2c1)c1ccc(Cl)cc1Cl
- T/C [1]: 96 % of control
- T/C [2]: 98 % of control
- T/C [3]: 95 % of control

SMILES: COC1(O)C(=O)c2ccccc2OC1(OC)c1ccc(C)cc1 (centres undefined)
- T/C [15]: 102 % of control
- T/C [12]: 98 % of control
- T/C [13]: 96 % of control
- T/C [14]: 98 % of control

SMILES: CC(C)=CCCc1ccc2c(c1)C(=O)c1ccccc1C2=O
- T/C [4]: 88 % of control
- T/C [5]: 92 % of control
- T/C [6]: 96 % of control

SMILES: CC(=O)OCc1ncccc1OC(C)=O
- T/C (endpoint: mean survival time, dose: 25.0 mg/kg/injection, schedule: Q01DX009 (ip), vehicle: suspension in saline): 102 % of control
- T/C (endpoint: mean survival time, dose: 50.0 mg/kg/injection, schedule: Q01DX009 (ip), vehicle: suspension in saline): 98 % of control
- T/C (endpoint: mean survival time, dose: 100.0 mg/kg/injection, schedule: Q01DX009 (ip), vehicle: suspension in saline): 102 % of control
- T/C (endpoint: mean survival time, dose: 200.0 mg/kg/injection, schedule: Q01DX009 (ip), vehicle: suspension in saline): 93 % of control

SMILES: N=c1cc([N+](=O)[O-])ccn1O
- T/C [12]: 97 % of control
- T/C [13]: 97 % of control
- T/C [14]: 105 % of control

SMILES: COc1cc(OC)c(NC(=O)Oc2ccc(NC(C)=O)cc2)cc1Cl
- T/C [9]: 88 % of control
- T/C [11]: 96 % of control

SMILES: O=C(Nc1c(Oc2ccc(Cl)cc2)ccc(Cl)c1S(=O)(=O)O)Nc1c(Oc2ccc(Cl)c(Cl)c2)ccc(Cl)c1S(=O)(=O)O
- T/C [12]: 93 % of control
- T/C [13]: 88 % of control

SMILES: Cc1ccc(S(=O)(=O)N(CCCc2c(C)nc(N)[nH]c2=O)Cc2cccc([N+](=O)[O-])c2)cc1
- T/C (endpoint: mean survival time, dose: 100.0 mg/kg/injection, schedule: Q01DX001 (ip), vehicle: saline with Tween-80): 92 % of control
- T/C (endpoint: mean survival time, dose: 200.0 mg/kg/injection, schedule: Q01DX001 (ip), vehicle: saline with Tween-80): 96 % of control
- T/C (endpoint: mean survival time, dose: 400.0 mg/kg/injection, schedule: Q01DX001 (ip), vehicle: saline with Tween-80): 92 % of control
